Legend:
[1] = tested on: MyD88; assay: Western blot of MyD88 in oral keratinocytes; format: cell-based, human
Experimental: (§1) Cell Culture. Normal human oral keratinocytes (NOKSI) and fibroblast (HOF) cells were maintained in Dulbecco […] Eagle's medium (Sigma-Aldrich, St. Louis, MO, USA) supplemented with 10% fetal bovine serum (Atlas Bio-logicals, Fort Collins, CO, USA) and 100 units/mL penicillin and 100 μg/mL streptomycin (LifeTechnologies, Carlsbad, CA, USA). Cells were grown in incubator at 37° C. in a humidified chamber with 5% CO2.
Drugs treatment in cell culture. The cells were treated alone or with different combination of lipopolysaccharide, cyclosporine, phenytoin, and folic acid. All of them were purchased from Sigma-Aldrich (St. Louis, MO, USA). Each of them were used from 0 μg/ml to 40 μg/ml and the optimum concentration were found 10 μg/ml.
Western blot analysis. Cells were seeded in 60 mm plates with a density of 5×10^5 cells per plate and washed briefly with Dulbecco's phosphate-buffered saline (Gibco, Waltham, MA, USA). Whole cell lysates were prepared using RIPA lysis buffer containing protease inhibitor cocktail (Sigma-Aldrich). Total protein concentration was determined using the BCA reagent (Pierce, Waltham, MA, USA). 20 μg of total protein were resolved on sodium dodecyl sulfate-polyacrylamide gel electrophoresis and transferred to polyvinylidenedifluoride membrane and immunoblotted. The blots were incubated for 1 h in 1% bovine serum albumin (BSA) (Sigma-Aldrich) to block the non-specific bindings followed by over-night incubation in primary antibodies (MyD88 and pP65 from Cell Signaling Technology, and human LITAF ThermoFisher Sigma) at 4° C. on shaker. Next day, blots were washed for three times (10 min each) in Tris-buffered saline containing 1% Tween20 (TBST) followed by incubation with secondary antibody (Goat anti-rabbit IgG HRP) with 1:10,000 dilution for 1 h. Following washes, bands were visualized using gel documentation Imaging Systems (BioRad). The band intensities were quantified using software ImageJ (NIH, USA) and relative protein levels were normalized by β-actin (Cell Signaling). To perform the western blot of animal tissue samples, the gingival tissues were collected from both BABLB/c and C57BL/6 mice studies. The soft tissues were separated from the mandibular bone and then crunched. The Bradford assay was performed to measure the protein concentration of each sample. After normalization, 20 μg of whole tissue protein lysate were proceeded for western blot analysis.

[2] = tested on: Collagen type I alpha 1 (Col1a1); assay: Collagen (Col1a1) expression in Human Oral Fibroblasts, QPCR; format: cell-based; conditions: HOF treated with conditioned media from Oral Keratinocytes containing LPS, CSA, Phenytoin or Folic acid (10 μg/ml), 24 hours; p<0.05
Experimental: as §1
Human Oral Fibroblasts (HOF) cells were seeded in 60 mm plates with a density of 2.5×10^4/cm^2 and treated with condition (CM) media collected from Oral Keratinocytes containing LPS (10 μg/ml), CSA (10 μg/ml), Phenytoin (10 μg/ml), or Folic acid (10 μg/ml) and incubated for 24 hours. The Collagen type I alpha 1 (Col1a1) gene expression was determined by QPCR. HOF cells were treated with rTGF-β, SB-431542 (SB), rTNF-α, or TNF-α inhibitor (TNF-α inh). Quantitative real-time PCR results showing the expression of Col1a1 in HOF cells after the treatment. (p<0.05).

[3] = tested on: p-P65; assay: Immunofluorescence of p-P65 nuclear translocation in oral keratinocytes; format: cell-based, human; conditions: 24 hours
Experimental: Immunostaining and fluorescence microscopy. The cultured cells were fixed with 4% paraformaldehyde followed by permeabilization with phosphate buffered saline (PBS) containing 0.1% Triton X-100 (PBS-T), and blocking with PBS-T containing 5% bovine serum albumin (BSA). Then, the cells were incubated with anti-pP65 antibody (Cell Signaling, USA) followed by Alexa Fluor 488 conjugated-goat anti-rabbit secondary antibody (Invitrogen, Grand Island). Rhodamine phalloidin (Invitrogen) and 4′,6-diamidino-2-phenylindole (Vector labs, Burlingame) were added to visualize the actin and nucleus respectively. The samples were mounted and examined using a Zoe microscope (BioRad, USA). The image analyses were performed using the ImageJ (NIH) software.
Oral Keratinocytes cells were cultured, and treated with CSA, LPS or FA alone or with combinations and incubated for 24 hours. The immunofluorescent images were taken to determine the translocation of p-P65 (green) to the nucleus (blue). Cells were counterstained with Phalloidin (cytoskeleton, red) and DAPI (nucleus).
Oral Keratinocytes cells were seeded in 24 well plates. […] Translocation of phospho-p65 (p-P65) protein to the nucleus was determined by fluorescence microscopy as shown in the green color. The morphology of cells and nucleus position were determined by palloidin and DAPI staining shown by red and blue colors respectively.

Nc1nc2ncc(CNc3ccc(C(=O)N[C@@H](CCC(=O)O)C(=O)O)cc3)nc2c(=O)[nH]1 [folic acid]
MyD88 protein level ([1]; LPS, CSA, FA each 10 μg/ml, 24 hours): inhibits CSA-induced expression | amount of MYD88 protein ([1]; LPS, Phe, FA each 10 μg/ml, 24 hours): MyD88 expression is reduced | MyD88 by western blot, dose-dependent effects of FA ([1]; different concentration of folic acid, 24 hrs): inhibition of MyD88 | MyD88 by western blot, kinetics of downregulation ([1]; different time points, FA 10 μg/ml): inhibition of MyD88 | MyD88 by western blot ([1]; normal oral keratinocyte cells, FIG. 35): downregulation | Collagen type I alpha 1 (Col1a1) gene expression [2]: reduces the collagen expression | translocation of p-P65 to the nucleus ([3]; CSA, LPS or FA alone or in combinations): inhibits CSA-induced activation of phospho-P65 | translocation of phospho-p65 (p-P65) protein to the nucleus ([3]; LPS, Phe, FA each 10 μg/ml): reduced nuclear translocation of p-P65

— US20260000496A1, “MATERIALS AND METHODS FOR DRUG-INDUCED GINGIVAL OVERGROWTH” (Optimed Technology, Inc., priority 2019, published 2026)
